From patent US20230398130A1, “METHODS AND COMPOSITIONS FOR DIFFERENTIATING STEM CELLS” (Massachusetts Institute of Technology, priority 2020, published 2023)

What was measured:
ISC-enriched organoids [1] = assay: Primary screen, 384-well 2.5-D organoid differentiation (ENR+CD, 6 days): basal lysozyme secretion (LYZ.NS); type: cell-based, murine; conditions: for Dose.FC.LYZ.NS (log 2 fold change, basal lysozyme secretion): vs plate median; for Dose.FC.LYZ.NS: FC vs plate median; for Z.LYZ.NS: standard z score of FC
Excerpt: (§1) High-throughput screening.

ISC-enriched organoids [2] = assay: Primary screen, 384-well 2.5-D organoid differentiation (ENR+CD, 6 days, Target Selective Inhibitor Library, vs whole-plate median): ATP (CellTiter-Glo 3D, CTG); conditions: for Dose.FC.CTG (log 2 fold change, ATP): vs plate median; for Dose.FC.CTG: FC vs plate median; for Z.CTG: standard z score of FC
ISC-enriched organoids [3] = assay: Primary screen, 384-well 2.5-D organoid differentiation (ENR+CD, 6 days): carbachol-induced lysozyme secretion (LYZ.S); type: cell-based, murine; conditions: for Dose.FC.LYZ.S (log 2 fold change, carbachol-induced lysozyme secretion): vs plate median; for Dose.FC.LYZ.S: primary screen, FC vs plate median
Excerpt: as §1

[4] = dose 0.08 uM (1st of 4 lines per treatment; dose not printed in this part)
[5] = dose 0.40 uM (2nd of 4 lines per treatment; dose not printed in this part)
[6] = dose 2.00 uM (3rd of 4 lines per treatment; dose not printed in this part)
[7] = dose 10.00 uM (4th of 4 lines per treatment; dose not printed in this part)
[8] = primary screen, dose 0.08 uM, ENR+CD 6 days
[9] = primary screen, dose 0.40 uM, ENR+CD 6 days
[10] = primary screen, dose 2.00 uM, ENR+CD 6 days
[11] = primary screen, dose 10.00 uM, ENR+CD 6 days

Cc1cc(C)nc(NS(=O)(=O)c2ccc(NC(=S)NC(=O)COc3ccc(Br)cc3Cl)cc2)n1 [ZCL278]
Z.LYZ.NS (standard z score) (ISC-enriched organoids [1]; dose 0.08 uM): −0.729
Dose.FC.LYZ.NS (log 2 fold change, basal lysozyme secretion) (ISC-enriched organoids [1]; dose 0.08 uM): −0.084
Z.LYZ.NS (standard z score) (ISC-enriched organoids [1]; dose 0.40 uM): −0.325
Dose.FC.LYZ.NS (log 2 fold change, basal lysozyme secretion) (ISC-enriched organoids [1]; dose 0.40 uM): −0.037
Z.LYZ.NS (standard z score) (ISC-enriched organoids [1]; dose 2.00 uM): 0.218
Dose.FC.LYZ.NS (log 2 fold change, basal lysozyme secretion) (ISC-enriched organoids [1]; dose 2.00 uM): 0.025
Z.LYZ.NS (standard z score) (ISC-enriched organoids [1]; dose 10.00 uM): 0.130
Dose.FC.LYZ.NS (log 2 fold change, basal lysozyme secretion) (ISC-enriched organoids [1]; dose 10.00 uM): 0.015
Z.CTG (standard z score) (ISC-enriched organoids [2]; dose 0.08 uM): −2.303
Dose.FC.CTG (log 2 fold change, ATP) (ISC-enriched organoids [2]; dose 0.08 uM): −0.964
Z.CTG (standard z score) (ISC-enriched organoids [2]; dose 0.40 uM): 0.044
Dose.FC.CTG (log 2 fold change, ATP) (ISC-enriched organoids [2]; dose 0.40 uM): 0.018
Z.CTG (standard z score) (ISC-enriched organoids [2]; dose 2.00 uM): −0.545
Dose.FC.CTG (log 2 fold change, ATP) (ISC-enriched organoids [2]; dose 2.00 uM): −0.228
Z.CTG (standard z score) (ISC-enriched organoids [2]; dose 10.00 uM): −0.247
Dose.FC.CTG (log 2 fold change, ATP) (ISC-enriched organoids [2]; dose 10.00 uM): −0.104
Dose.FC.LYZ.S (log 2 fold change, carbachol-induced lysozyme secretion) (ISC-enriched organoids [3]; dose 0.08 uM): −0.107
Dose.FC.LYZ.S (log 2 fold change, carbachol-induced lysozyme secretion) (ISC-enriched organoids [3]; dose 0.40 uM): 0.077
Dose.FC.LYZ.S (log 2 fold change, carbachol-induced lysozyme secretion) (ISC-enriched organoids [3]; dose 2.00 uM): −0.079
Dose.FC.LYZ.S (log 2 fold change, carbachol-induced lysozyme secretion) (ISC-enriched organoids [3]; dose 10.00 uM): −0.080

(−)-MK 801 Maleate
SSMD.LYZ.NS_Rep (strictly standardized mean difference) (ISC-enriched organoids [1]; [4]): 0.070
SSMD.LYZ.NS_Rep (strictly standardized mean difference) (ISC-enriched organoids [1]; [5]): −0.550
SSMD.LYZ.NS_Rep (strictly standardized mean difference) (ISC-enriched organoids [1]; [6]): −1.315
SSMD.LYZ.NS_Rep (strictly standardized mean difference) (ISC-enriched organoids [1]; [7]): −1.708
Dose.FC.LYZ.NS (ISC-enriched organoids [1]; [8]): 0.008 log 2 fold change
Z.LYZ.NS (ISC-enriched organoids [1]; primary screen, dose 0.08 uM): 0.072
Dose.FC.LYZ.NS (ISC-enriched organoids [1]; [9]): −0.099 log 2 fold change
Z.LYZ.NS (ISC-enriched organoids [1]; primary screen, dose 0.40 uM): −0.864
Dose.FC.LYZ.NS (ISC-enriched organoids [1]; [10]): −0.256 log 2 fold change
Z.LYZ.NS (ISC-enriched organoids [1]; primary screen, dose 2.00 uM): −2.227
Dose.FC.LYZ.NS (ISC-enriched organoids [1]; [11]): −0.259 log 2 fold change
Z.LYZ.NS (ISC-enriched organoids [1]; primary screen, dose 10.00 uM): −2.255
SSMD.CTG_Rep (strictly standardized mean difference) (ISC-enriched organoids [2]; [4]): 0.442
SSMD.CTG_Rep (strictly standardized mean difference) (ISC-enriched organoids [2]; [5]): −1.342
SSMD.CTG_Rep (strictly standardized mean difference) (ISC-enriched organoids [2]; [6]): −1.102
SSMD.CTG_Rep (strictly standardized mean difference) (ISC-enriched organoids [2]; [7]): −1.696
Dose.FC.CTG (ISC-enriched organoids [2]; [8]): 0.127 log 2 fold change
Z.CTG (ISC-enriched organoids [2]; primary screen, dose 0.08 uM): 0.303
Dose.FC.CTG (ISC-enriched organoids [2]; [9]): −0.377 log 2 fold change
Z.CTG (ISC-enriched organoids [2]; primary screen, dose 0.40 uM): −0.899
Dose.FC.CTG (ISC-enriched organoids [2]; [10]): −0.702 log 2 fold change
Z.CTG (ISC-enriched organoids [2]; primary screen, dose 2.00 uM): −1.677
Dose.FC.CTG (ISC-enriched organoids [2]; [11]): −0.936 log 2 fold change
Z.CTG (ISC-enriched organoids [2]; primary screen, dose 10.00 uM): −2.236
SSMD.LYZ.S_Rep (strictly standardized mean difference) (ISC-enriched organoids [3]; [4]): 0.116
Z.LYZ.S (standard z score) (ISC-enriched organoids [3]; [4]): 0.099
SSMD.LYZ.S_Rep (strictly standardized mean difference) (ISC-enriched organoids [3]; [5]): −0.976
Z.LYZ.S (standard z score) (ISC-enriched organoids [3]; [5]): −1.159
SSMD.LYZ.S_Rep (strictly standardized mean difference) (ISC-enriched organoids [3]; [6]): −1.187
Z.LYZ.S (standard z score) (ISC-enriched organoids [3]; [6]): −2.160
SSMD.LYZ.S_Rep (strictly standardized mean difference) (ISC-enriched organoids [3]; [7]): −1.768
Z.LYZ.S (standard z score) (ISC-enriched organoids [3]; [7]): −2.604
Dose.FC.LYZ.S (ISC-enriched organoids [3]; dose 0.08 uM, ENR+CD 6 days): 0.015 log 2 fold change
Dose.FC.LYZ.S (ISC-enriched organoids [3]; dose 0.40 uM, ENR+CD 6 days): −0.179 log 2 fold change
Dose.FC.LYZ.S (ISC-enriched organoids [3]; dose 2.00 uM, ENR+CD 6 days): −0.334 log 2 fold change
Dose.FC.LYZ.S (ISC-enriched organoids [3]; dose 10.00 uM, ENR+CD 6 days): −0.403 log 2 fold change

C=CCc1cccc(/C=N/NC(=O)CN2CCN(Cc3ccccc3)CC2)c1O [PAC-1]
Dose.FC.LYZ.NS (ISC-enriched organoids [1]; Dose 0.08 uM, primary screen): 0.157 log 2 fold change
Z.LYZ.NS (ISC-enriched organoids [1]; Dose 0.08 uM): 1.365
Dose.FC.LYZ.NS (ISC-enriched organoids [1]; Dose 0.40 uM, primary screen): 0.053 log 2 fold change
Z.LYZ.NS (ISC-enriched organoids [1]; Dose 0.40 uM): 0.457
Dose.FC.LYZ.NS (ISC-enriched organoids [1]; Dose 2.00 uM, primary screen): 0.126 log 2 fold change
Z.LYZ.NS (ISC-enriched organoids [1]; Dose 2.00 uM): 1.094
Dose.FC.LYZ.NS (ISC-enriched organoids [1]; Dose 10.00 uM, primary screen): 0.068 log 2 fold change
Z.LYZ.NS (ISC-enriched organoids [1]; Dose 10.00 uM): 0.596
Dose.FC.CTG (ISC-enriched organoids [2]; Dose 0.08 uM, primary screen): 0.095 log 2 fold change
Z.CTG (ISC-enriched organoids [2]; Dose 0.08 uM): 0.228
Dose.FC.CTG (ISC-enriched organoids [2]; Dose 0.40 uM, primary screen): 0.113 log 2 fold change
Z.CTG (ISC-enriched organoids [2]; Dose 0.40 uM): 0.270
Dose.FC.CTG (ISC-enriched organoids [2]; Dose 2.00 uM, primary screen): −0.241 log 2 fold change
Z.CTG (ISC-enriched organoids [2]; Dose 2.00 uM): −0.576
Dose.FC.CTG (ISC-enriched organoids [2]; Dose 10.00 uM, primary screen): 0.002 log 2 fold change
Z.CTG (ISC-enriched organoids [2]; Dose 10.00 uM): 0.004
Dose.FC.LYZ.S (ISC-enriched organoids [3]; Dose 0.08 uM): 0.128 log 2 fold change
Dose.FC.LYZ.S (ISC-enriched organoids [3]; Dose 0.40 uM): 0.059 log 2 fold change
Dose.FC.LYZ.S (ISC-enriched organoids [3]; Dose 2.00 uM): −0.006 log 2 fold change
Dose.FC.LYZ.S (ISC-enriched organoids [3]; Dose 10.00 uM): 0.092 log 2 fold change
